The values below come from PubChem BioAssay AID651841 (Broad Institute, 2012).

“And” between values parts separate entries of the source, which are not always exact repeats. Identical values can stand only once. The source made the active and inactive calls. How the calls were made is not given here.

The first assay relates to CAI-1 sensor histidine kinase CqsS (Vibrio cholerae). Briefly: Inducers of light production, absence of autoinducers, V cholerae delta luxQ strain, confirmatory (AID 651841). Particulars: V. cholerae WN1103 delta luxQ, luciferase light, 6 h.
For the compound `CCn1nnnc1NCc1ccc(C(C)C)cc1`, the AC40 is 5.01 nM and 45.1 nM.
For `CCC(C)NC(=O)Cc1ccc(-c2ccccc2)cc1` (stereo not given), the AC40 is 2060 nM.
On to `CCCCn1nnnc1NCc1ccc(N2CCCC2)cc1`, for which the AC40 was 2640 nM.
Regarding `Cn1nnnc1NCc1ccc(N2CCCC2)cc1`, the AC40 is 351 nM.
On to `CC(C)NC(=O)Cc1ccc(-c2ccccc2)cc1`, for which the AC40 is 2500 nM.
As to `CCCn1nnnc1NCc1ccc(N2CCCC2)cc1`, the AC40 was 12.1 nM.
In the case of `CCn1nnnc1NCc1ccc(N2CCCC2)cc1`, the AC40 was 10.7 nM.
`O=C(Cc1ccc(-c2ccccc2)cc1)NC1CCOCC1`: the AC40 is 1200 nM.
Take `CCn1nnnc1CCc1ccc(N2CCCC2)cc1`: the AC40 was 713 nM.
Turning to `CCCn1nnnc1NCc1ccc(C(C)C)cc1`, the AC40 was 319 nM.
As to `CC(C)c1ccc(CNc2nnnn2C)cc1`, the AC40 was 577 nM.
`O=C(Cc1ccc(-c2ccccc2)cc1)NC1CCC1`: the AC40 is 280 nM.
Consider `O=C(Cc1ccc(-c2ccccc2)cc1)NC1CCCCC1`, for which the AC40 was 8980 nM.
In the case of `CCC(CC)NC(=O)Cc1ccc(-c2ccccc2)cc1`, the AC40 is 2200 nM.
For the compound `O=C(Cc1ccc(-c2ccccc2)cc1)NC1CCCC1`, the AC40 is 212 nM and 313 nM.
On to `CCn1nnnc1NCc1cccc(N2CCCC2)c1`, for which the AC40 was 51.2 nM.
On the same count and under the same terms, the same measure for `CCn1nnnc1NCc1ccc(N2CCCCC2)cc1`: 55.5 nM.

Still in this assay, the particulars now being: V. cholerae WN1103 delta luxQ, luciferase light, 6 h; at 80 µM (top of the series).
Turning to `CS(=O)(=O)c1ccc(CC(=O)NC2CCCC2)cc1`, the activation is 0.008% (inactive).
Same read-out and setting: the same measure for `O=C(Cc1ccccc1F)NC1CCCC1`: 0.603% (inactive); for `O=C(Cc1cccc(OC(F)(F)F)c1)NC1CCCC1`: 2.18% (inactive); for `CCc1ccccc1NCc1ccc(N2CCCC2)cc1`: 0.105% (inactive).
With `c1ccc(Cn2nnnc2NCc2ccc(N3CCCC3)cc2)cc1`, the activation is 0.279% (inactive).
The same measure, in the same setting: the same measure for `CCn1nccc1/N=C/c1ccc(N2CCCC2)cc1`: 0.487% (inactive).
For the compound `O=C(Cc1ccccc1OC(F)(F)F)NC1CCCC1`, the activation was 0.045% (inactive).
For `CCn1nnnc1NCc1cccc(OC)c1`, the activation was 24.5% (inactive).
As for `CCCn1nnnc1NCc1ccccc1Cl`, the activation was 0.104% (inactive).
As for `CCn1nccc1NCc1ccc(N2CCCC2)cc1`, the activation is 0.149% (inactive).
Take `c1ccc(-n2nnnc2NCc2ccc(N3CCCC3)cc2)cc1`: the activation was 0.501% (inactive).
As for `Cc1ccccc1CC(=O)NC1CCCC1`, the activation was 0.164% (inactive).
On the same count and under the same terms, the same measure for `CCn1nnnc1NCc1ccccc1N1CCCC1`: 0.052% (inactive).
On the same count and under the same terms, the same measure for `Fc1ccc(Cn2nnnc2NCc2ccc(N3CCCC3)cc2)cc1`: 0.54% (inactive); for `c1ccc(Cn2nnc(NCc3ccc(N4CCCC4)cc3)n2)cc1`: 0.159% (inactive).
On the same count and under the same terms, next, `O=C(NCc1ccc(-c2ccccc2)cc1)C1CCCC1`: 3.17% (inactive); `CCn1nnc(CCc2ccc(N3CCCC3)cc2)n1`: 0.131% (inactive).
With `COc1ccc(CC(=O)NC2CCCC2)cc1`, the activation was 13% (inactive).
As to `Cc1ccc(Cn2nnnc2NCc2ccc(N3CCCC3)cc2)cc1`, the activation was 0.549% (inactive).
Regarding `O=C(Cc1ccccc1Cl)NC1CCCC1`, the activation is 0.107% (inactive).
`O=C(Cc1cccc(F)c1)NC1CCCC1`: the activation was 0.377% (inactive).
With `O=C(Cc1ccccc1C(F)(F)F)NC1CCCC1`, the activation is 0.044% (inactive).
As to `CCn1nnc(NCc2ccc(C)cc2)n1`, the activation is 0.069% (inactive).
